Tests used:
Calreticulin = Calreticulin release (ER to plasma membrane translocation) screen, Nano-Glo HiBiT extracellular detection; format: cell-based; conditions: Homo sapiens, MDA-MB-231, MDA-MB-231 cells stably expressing Calreticulin-HiBiT; extracellular luminescence; read-out: CalR EC50
HMGB1 = HMGB1 release screen, Nano-Glo HiBiT extracellular detection; format: cell-based; conditions: Homo sapiens, MDA-MB-231, MDA-MB-231 cells stably expressing HMGB1-HiBiT; extracellular luminescence

SMILES	EC50 (Calreticulin) [µM]	EC50 (HMGB1) [µM]	melting point [°C]
CN(C)c1cc2c(=O)[nH]c(CN3CC(C)(C)c4ccccc43)nc2cn1 [Ex. #92, 6-(dimethylamino)-2-[(3,3-dimethylindolin-1-yl)methyl]-3H-pyrido[3,4-d]pyrimidin-4-one]	0.0988	0.14	194 to 211
CC1(C)CN(Cc2nc3ccc(C#N)cc3c(=O)[nH]2)c2ccccc21 [Ex. #95, 2-[(3,3-dimethylindolin-1-yl)methyl]-4-oxo-3H-quinazoline-6-carbonitrile]	9.96	11.5	187 to 197
COCCCOc1ccc2nc(CN3CC(C)(C)c4ccccc43)[nH]c(=O)c2c1 [Ex. #96, 2-[(3,3-dimethylindolin-1-yl)methyl]-6-(3-methoxypropoxy)-3H-quinazolin-4-one]	9.86	10.6	155 to 165
CC1(C)CN(Cc2nc3cc4c(cc3c(=O)[nH]2)OCO4)c2ccccc21 [Ex. #119, 6-[(3,3-dimethylindolin-1-yl)methyl]-7H-[1,3]dioxolo[4,5-g]quinazolin-8-one]	6.16	7.56	199 to 221

Other lines, results leading:

EC50 (Calreticulin) [µM]	EC50 (HMGB1) [µM]	melting point [°C]	SMILES
1.66	12.7	174 to 179	COc1ccc2nc(CN3CCc4ccccc4C3)[nH]c(=O)c2c1 [Ex. #122, 2-(3,4-dihydro-1H-isoquinolin-2-ylmethyl)-6-methoxy-3H-quinazolin-4-one]
9.76	15.9	196 to 206	COc1ccc2nc(CN3CCc4c(cccc4C(F)(F)F)C3)[nH]c(=O)c2c1 [Ex. #125, 6-methoxy-2-[[5-(trifluoromethyl)-3,4-dihydro-1H-isoquinolin-2-yl]methyl]-3H-quinazolin-4-one]
9.06	15.1	195 to 203	COc1cccc2c1CN(Cc1nc3ccc(Cl)cc3c(=O)[nH]1)CC2 [Ex. #130, 6-chloro-2-[(8-methoxy-3,4-dihydro-1H-isoquinolin-2-yl)methyl]-3H-quinazolin-4-one]
8.16	14	211 to 233	COc1ccc2nc(CN3CCc4c(N)cccc4C3)[nH]c(=O)c2c1 [Ex. #133, 2-[(5-amino-3,4-dihydro-1H-isoquinolin-2-yl)methyl]-6-methoxy-3H-quinazolin-4-one]
